Legend:
[1] = Lipophilicity, log D of the compound; assay type: physicochemical; conditions: octanol/water
[2] = target: ALK tyrosine kinase receptor (Homo sapiens, UniProt Q9UM73, L1196M); test: Inhibition of ALK L1196M mutant (unknown origin)
[3] = target: Aldo-keto reductase family 1 member B1 (Homo sapiens, UniProt P15121); test: Inhibition of human ALR2

Chain of ALK tyrosine kinase receptor (Q9UM73 19-1620 L1196M limits assumed): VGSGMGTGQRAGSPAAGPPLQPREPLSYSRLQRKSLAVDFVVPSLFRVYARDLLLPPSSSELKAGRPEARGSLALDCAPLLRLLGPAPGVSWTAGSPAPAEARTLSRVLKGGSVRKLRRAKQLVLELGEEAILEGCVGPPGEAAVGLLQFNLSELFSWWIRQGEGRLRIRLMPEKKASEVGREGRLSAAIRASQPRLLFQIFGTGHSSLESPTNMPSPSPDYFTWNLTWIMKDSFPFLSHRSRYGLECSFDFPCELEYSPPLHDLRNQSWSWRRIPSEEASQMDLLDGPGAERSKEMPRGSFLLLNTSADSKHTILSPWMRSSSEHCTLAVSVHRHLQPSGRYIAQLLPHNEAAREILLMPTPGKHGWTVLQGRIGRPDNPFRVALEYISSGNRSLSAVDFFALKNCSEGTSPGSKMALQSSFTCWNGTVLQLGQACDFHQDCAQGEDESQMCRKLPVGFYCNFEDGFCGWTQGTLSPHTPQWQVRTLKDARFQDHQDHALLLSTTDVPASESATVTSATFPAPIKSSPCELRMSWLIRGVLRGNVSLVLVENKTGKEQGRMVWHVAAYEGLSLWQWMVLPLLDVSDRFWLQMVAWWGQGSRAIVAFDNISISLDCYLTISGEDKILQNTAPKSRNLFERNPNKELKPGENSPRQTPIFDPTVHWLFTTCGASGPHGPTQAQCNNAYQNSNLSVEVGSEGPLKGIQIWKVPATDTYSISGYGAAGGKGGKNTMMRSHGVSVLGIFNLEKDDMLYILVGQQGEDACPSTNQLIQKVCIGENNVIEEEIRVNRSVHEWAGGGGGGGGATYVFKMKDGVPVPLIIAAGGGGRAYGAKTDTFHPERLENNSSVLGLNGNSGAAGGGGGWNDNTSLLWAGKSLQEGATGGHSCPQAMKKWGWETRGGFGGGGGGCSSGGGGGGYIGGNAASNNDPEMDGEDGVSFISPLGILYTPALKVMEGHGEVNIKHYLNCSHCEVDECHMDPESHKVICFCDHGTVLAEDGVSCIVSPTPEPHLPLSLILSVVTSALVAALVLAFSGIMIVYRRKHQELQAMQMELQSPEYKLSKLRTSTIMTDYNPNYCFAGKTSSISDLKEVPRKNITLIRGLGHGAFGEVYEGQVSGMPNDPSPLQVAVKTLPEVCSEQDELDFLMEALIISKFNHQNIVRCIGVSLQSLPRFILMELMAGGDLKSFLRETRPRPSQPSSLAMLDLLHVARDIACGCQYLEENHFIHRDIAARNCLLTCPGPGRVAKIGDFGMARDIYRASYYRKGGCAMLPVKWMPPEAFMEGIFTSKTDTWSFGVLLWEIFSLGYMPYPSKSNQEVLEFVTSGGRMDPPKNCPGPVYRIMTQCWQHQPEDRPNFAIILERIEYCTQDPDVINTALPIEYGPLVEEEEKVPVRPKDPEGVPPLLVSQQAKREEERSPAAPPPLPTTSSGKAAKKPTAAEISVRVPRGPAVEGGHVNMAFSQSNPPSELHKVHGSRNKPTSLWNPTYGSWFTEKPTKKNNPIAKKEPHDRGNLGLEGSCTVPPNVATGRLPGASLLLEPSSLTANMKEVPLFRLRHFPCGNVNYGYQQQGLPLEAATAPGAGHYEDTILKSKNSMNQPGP

logD [1]	Ki [2] [nM]	IC50 [3] [nM]	Structure (SMILES)
2.2	4		C[C@H]1Oc2cc(cnc2N)-c2c(nn(C)c2C#N)CN(C)C(=O)c2ccccc21
		550	O=C(O)COc1cc(Cl)ccc1C(=O)NCc1ccc(Br)cc1
